Target: T1, human hPGDS (Homo sapiens, UniProt O60760)
T1 construct: made in house; host or cells: E. coli FL21 (DE3) as printed, pT7-7 vector
Assay: Fluorescence polarization assay of hematopoietic prostaglandin D synthase (hPGDS)
Type: biochemical
Conditions: conversion of PGH2 to PGD2, FIG. 8 histogram
Protocol: A fluorescence polarization (FP) assay to measure hPGDS activity has also been developed (FIGS. 3 and 4). The assay is configured based on the fluorescence polarization principle. hPGDS was mixed with PGH2, glutathione, and the compound or agent being evaluated. After a short period of time (about 30 seconds), a stop solution containing FeCl2 (20 mM) was added to quench any remaining PGH2, which would undergo spontaneous conversion to a mixture of PGD2 and PGE2, and thus interfere with the quantification of the enzymatic conversion of PGH2 to PGD2 (FIG. 3). A detection solution containing a fluorescence labeled (Texas Red) tracer (PGD2) and anti-PGD2 antibody was then added in order to generate the specific signal that is inversely proportional to the production of PGD2 (FIG. 4). The PGD2 generated from the enzymatic reaction competed specifically for the antibody and released the fluorescence labeled tracer. For reasons discussed above, a decrease or inhibition of PGD2 synthase activity results in increased fluorescence polarization (FP) value. […]
A control mixture was prepared that was identical to the mixture containing the enzyme, wherein the control mixture was treated in a manner identical the mixture containing the enzyme, i.e., same incubation durations, etc. […] The fluorescence polarization measurement was made while the measuring instrument is in FP mode. […]

T1 sequence (O60760 whole entry): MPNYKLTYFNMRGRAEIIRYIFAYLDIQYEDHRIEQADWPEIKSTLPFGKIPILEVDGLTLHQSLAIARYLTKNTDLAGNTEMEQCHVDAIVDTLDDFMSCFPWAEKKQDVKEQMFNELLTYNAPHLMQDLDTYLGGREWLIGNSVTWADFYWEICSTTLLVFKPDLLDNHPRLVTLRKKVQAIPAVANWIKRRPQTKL

c1ccc(C(OC2CCN(CCCc3nn[nH]n3)CC2)c2ccccc2)cc1 [HQL 79]
decrease in activity of hPGDS detected by FP method: decreases the activity of hPGDS

From patent publication US20040082021A1, “Method for assaying compounds or agents for ability to decrease the activity of microsomal prostaglandin E synthase or hematopoietic prostaglandin D synthase” (Aventis Pharmaceuticals Inc., priority 2002, published 2004)
